The values that follow are results of earlier work, collected in US20050255049A1, “Formoterol and mometasone aerosol formulations” (priority 2002, published 2005).

For this data set the following is noted: stated in the background.

On to `C[C@@H]1C[C@H]2[C@@H]3CCC4=CC(=O)C=C[C@]4(C)[C@@]3(Cl)[C@@H](O)C[C@]2(C)[C@@]1(OC(=O)c1ccco1)C(=O)CCl` [mometasone furoate, (11 beta, 16alpha)-9,21-dichloro-17-[(2-furanylcarbonyl)oxy]-11-hydroxy-16-methylpregna-1,4-diene-3,20-dione], for which the density was 1.4 g cm^−3.
